According to US7775469B2, “Purposeful movement of human migratory cells away from an agent source” (The General Hospital Corporation, priority 1999, dated 2010):

Experiments:
[1] = test system: T-cell subpopulations moving toward or away from SDF-1α; test: Inhibitor pretreatment of T-cells in SDF-1α transwell transmigration assay; assay type: cell-based, human; settings: cells pretreated with inhibitor; for effect on chemotaxis to SDF-1α: peak chemotaxis at 100 ng/ml SDF-1α; for effect on fugetaxis from SDF-1α: peak fugetaxis at 1 or 10 μg/ml SDF-1α
Experimental: (§1) Three chemotaxis assays were used in this study. First, quantitative chemotaxis transmigration assays were performed using a transwell system (Corning Inc., NY) (6.5 mm diameter, 5 μm pore size, polycarbonate membrane) as previously described^13. Purified T-cell and thymocyte subpopulations (5×10^4 cells) were added to the upper chamber of each well in a total volume of 150 μl of IMDM alone. […] Cells were pretreated with pertussis toxin (PTX) 100 ng/ml for 1 hour, genistein (1 μg/ml for 20 minutes), herbimycin (1 μM for 20 minutes) or wortmannin (1 μM for 20 minutes) (Sigma Chemical Company, St Louis, Mo.) in a tissue culture incubator at 37° C. and 5% CO2 prior to their addition to the upper chambers of the transwells in selected experiments.
(§2) Transwells prepared in this way were incubated for 3 hours at 37° C., 5% CO2 incubator. Cells were harvested from the lower chamber after 3 hours and cell counts, immunophenotype and CXCR-4 chemokine receptor expression determined.
(§3) Cells were pretreated with anti-CXCR-4 (Pharmingen, San Diego, Calif.) at 20 μg/ml for 30 minutes at room temperature, pertussis toxin (PTX) (100 ng/ml for 1 hour at 37° C.), genistein (1 μg/ml for 20 minutes at 37° C.), herbimycin ([…] for 20 minutes 37° C.), wortmannin (1 μM for 20 minutes at 37° C.), 8-Br-cAMP (100 μM for 15 minutes at room temperature) or 8-Br-cGMP (100 μM for 15 minutes at room temperature) (Sigma Chemical Company, St Louis, Mo.) prior to their addition to the upper chambers of the transwells in selected experiments. Transwells prepared in this way were incubated for 3 hours at 37° C./5% C02 incubator. Cells were harvested from the lower chamber after 3 hours and cell counts performed using a hemocytometer.

CD8+CD45RA+ T-cells = test: Transwell transmigration assay with recombinant HIV-1IIIB gp120 and inhibitors; assay type: cell-based, human; settings: cells pretreated with inhibitor
Experimental: Purified T-cell and thymocyte subpopulations (5×10^4 cells) were added to the upper chamber of each well in a total volume of 150 μl of IMDM alone.
as §3

Jurkat T-cells = test: Transwell transmigration of Jurkat T-cells to HepG2CM fractions, with inhibitors; assay type: cell-based, human; settings: Jurkat cells pretreated, 100 μM for 15 minutes
Experimental: The HepG2 cell line (derived from a human hepatocarcinoma-ATCC no:HB-8065, ATCC, Manassas, Va.) was grown to confluency in MEM+10% heat inactivated fetal calf serum+penicillin/streptomycin+L-glutamine. Confluent HepG2 cells were then transferred into serum free medium for 48 hours and the serum free conditioned medium (HepG2CM) was harvested from these cultures. HepG2CM was filtered through a 0.4 μm filter prior to use in transmigration assays or in the Fugetaxin separation system detailed below.
200 ml of HepG2CM were loaded onto a 5-ml HiTrap heparin column (Pharmacia) equilibrated with 10 mM Na phosphate, pH 7. The column was eluted with step increasing concentration of NaCl. […] A cation exchange column, HiTrap Sp Sepharose (Pharmacia), was used as a second step of purification. The active fraction from the Heparin column was dialysized against 50 mM MES, pH6.4 and loaded onto a 1-ml HiTrap Sp column equilibrated with 50 mM MES, pH6.4. The column was then eluted with a linear gradient of NaCl concentration. • 3. […] The active fraction eluted from the HiTrap Sp column in the previous step was then dialysized with 20 mM Tris, pH8.0 and further fractionated using a MonoQ HR5/5 column (Pharmacia). The column was then eluted with a linear gradient of NaCl concentration.
We examined the biology of the fugetactic activity of Fraction 18 with in vitro and in vivo transmigration assay systems. […]

[2] = test system: adult peripheral blood T-cell subpopulations; test: Transwell transmigration assay with SDF-1α, adult peripheral blood T-cells; assay type: cell-based, human; settings: for T-cells transmigrating in response to a positive gradient of SDF-1α: SDF-1α 100 ng/ml
Description: Peripheral blood was obtained from 12 healthy donors (age 25-40 years, median age 31). Peripheral blood mononuclear cells (PBMC) were obtained from peripheral blood using Ficoll-Hypaque. PBMC were stained with anti-CD4 (PE), anti-CD8 (PE), anti-CD45RA (FITC), anti-CD45RO (FITC) (Becton-Dickinson, San Jose, Calif.). The CD4^+CD45RA^+, CD4^+CD45RO^+ and CD8^+CD45RA^+ or CD8^+CD45RO^+ subpopulations of peripheral blood cells were sorted using a FACS vantage sorter (Becton-Dickinson, San Jose, Calif.). […] Sorted adult peripheral blood T-cell subpopulations were cultured overnight in serum-free Iscoves modified medium (GIBCO BRL, Gaithersburg, Md.), prior to their use in chemotaxis assays.
as §1, §2

[3] = test system: adult peripheral blood T-cell subpopulations; test: Semi-quantitative transmigration assay with tissue culture insert as SDF-1α reservoir; assay type: cell-based, human
Experimental: The second semi-quantitative transmigration assay involved the use of a tissue culture insert (6.5 mm diameter, 0.45 μm pore size, polycarbonate membrane) (Millipore, Bedford Mass.). Adult peripheral blood T-cell subpopulations (1×10^5 cells) were plated into the wells of a 12-well tissue-culture dish in serum-free Iscove's medium. The tissue-culture plate was then incubated at 37° C. for 1 hour to allow the cells to settle evenly over the base of the well. […] The tissue culture insert was gently placed in the center of the well of the 12-well tissue-culture plate leaving a gap of 0.3 cm between the edge of the insert and the edge of the well of the tissue culture plate. The well with transwell insert was incubated for up to 18 hours at 37° C. on the heated stage of a microscope and viewed by time lapse videomicroscopy recording at 120 frames per hour or by Polaroid still photography. Maintenance of a gradient was assessed by loading of methylene blue into the insert and observing a preserved gradient of color over the incubation period.

[4] = test system: peripheral T-cell subpopulations; test: Semi-quantitative migration assay in methylcellulose, time lapse videomicroscopy; assay type: cell-based, human; settings: SDF-1α loaded at fixed position, 10 μg/ml or 100 ng/ml
Experimental: In the third semi-quantitative migration assay, T-cell subpopulations (1×10^5 cells) were mixed with 0.5 ml of 0.5% methylcellulose (Stem Cell Technologies, Vancouver, BC) in sterile medium and plated in a 24 well plate.
[…]
To further validate the process of concentration dependent directional movement, a third transmigration assay was used. […] The movement of a gradient across the methylcellulose was documented in independent experiments by monitoring a dye front through the culture; a process not achieving equilibrium over the duration of our incubations.

[5] = test system: TN, DP and SP subpopulations of fetal thymocytes; test: Transwell transmigration of fetal thymocytes to SDF-1α; assay type: cell-based, human
Description: (§4) Human fetal thymi and peripheral blood samples were obtained from 16 to 22 week abortuses according to Institutional Review Board approved guidelines. Thymi were physically disaggregated and mononuclear cell suspensions generated. Thymocytes were stained with CD8 (FITC), CD3 (PE) and CD4 (APC) and sorted into purified subpopulations of triple negative immature thymocytes (TN) (CD3^−, CD4^−, CD8^−) and mature double positive (DP) (CD4^+CD8^+) and single positive (SP) thymocytes (CD3^+CD4^+ or CD3^+CD8^+) by cell sorting. Fetal blood mononuclear cells (FBMC) were prepared from fetal blood using Ficoll-Hypaque as above. FBMC were labeled with CD8 (FITC), CD3 (PE), CD4 (APC) and anti-CD45RA (FITC). Purified populations of CD4^+CD45RA^+ and CD8^+CD45RA^+ T-cells were sorted cultured overnight in serum free Iscoves modified medium prior to use in chemotaxis assays.
(§5) Three chemotaxis assays were used in this study. First, quantitative chemotaxis transmigration assays were performed using a transwell system (Corning Inc., NY) (6.5 mm diameter, 5 μm pore size, polycarbonate membrane) as previously described^13. […]
as §2

[6] = test system: CD4+CD45RA+ and CD8+CD45RA+ fetal blood T-cells; test: Transwell transmigration of fetal blood T-cells to SDF-1α; assay type: cell-based, human
Description: as §4, §5, §2

C57/B6 mice = test: T-cell infiltration into the site of a secondary immune response (Ova challenge, peritoneal lavage) after SDF-1; assay type: in vivo, mouse; settings: 24 hours
Experimental: C57/B6 mice (Jackson Laboratories, ME) were obtained and primed subcutaneously with 100 μg chicken ovalbumin (Sigma) containing less than 0.01% LPS by the limulus assay and dissolved in 100 μl of Complete Freund's Adjuvant (CFA) (Sigma). Three days ova-primed mice were challenged by intraperitoneal (IP) injection with 100 μg of ovalbumin (Ova) dissolved in 250 μl of ddH20. […] These mice were then euthanized 24 hours following the second IP injection and peritoneal lavage with 5 mls of PBS performed with direct visualization of the peritoneal sac and its contents in order to avoid peripheral blood contamination. Peritoneal fluid cells harvested in this way contained <0.1% red blood cells. Three groups of control mice were used. In the first, C57/B6 mice were euthanized prior to Ova-priming and a peritoneal lavage performed. The second group of control mice were primed subcutaneously and challenged with Ova intraperitoneally as above and then euthanized 24 hours later. […]
Cells harvested from the peritoneal fluid were counted with a hemocytometer and their viability determined by Trypan blue exclusion and the total viable nucleated cell count per ml of peritoneal fluid was determined. […] The proportion of T-cells of each subpopulation (CD3^+, CD3^+CD4^+, CD3^+CD8^+) was determined as a percentage of the total nucleated cell fraction in the peritoneal fluid. […]

[7] = test system: adult peripheral blood T-cell subpopulations; settings: reported in the literature; cited from earlier work
[8] = test system: human T-cell subpopulations; test: Transmigration of human T-cells to KSHV-infected cell supernatants and chemokines; assay type: cell-based
Description: We examined the chemotactic and fugetactic responses of human T-cell subpopulations and KSHV specific CTL clones to the KSHV proteins vMIP-I and vMIP-II and serum free supernatants from two cell-lines well known in the art that are chronically infected by KSHV and derived from human tumors, lines BCBL-1 and VG-1. BCBL-1 is a B cell line derived from a body cavity-based B lymphoma that is latently infected with HHV-8/KSHV; no EBV DNA is present in this line (Renne, R., W. et al., Nat. Med., 1996, 2:342-346).
FIG. 7: Transmigration of human T-cells to supernatants derived from cell lines which are chronically infected with KSHV (FIG. 7A: BCBL-1, and FIG. 7B:VG-1).
Fugetactic (black bars) and chemotactic (striped bars) migratory responses are shown.

O=c1c(-c2ccc(O)cc2)coc2cc(O)cc(O)c12 [genistein]
effect on chemotaxis to SDF-1α [1]: inhibited chemotaxis | effect on fugetaxis from SDF-1α [1]: minimal effect on fugetaxis

Nc1ncnc2c1nc(Br)n2[C@@H]1O[C@@H]2COP(=O)(O)O[C@H]2[C@H]1O [8-Br-cAMP]
effect on chemotaxis to SDF-1α [1]: not chemotaxis | effect on fugetaxis from SDF-1α [1]: inhibited fugetaxis | effect on movement away from HIV-1IIIB gp120 (CD8+CD45RA+ T-cells): differentially sensitive to inhibition | inhibition of fugetaxis induced by Fraction 18 (Jurkat T-cells): 95%

CO[C@H]1[C@@H](OC)C[C@H](C)[C@@H](OC)C2=CC(=O)C=C(NC(=O)/C(C)=C/C=C\[C@H](OC)[C@@H](OC(N)=O)/C(C)=C/[C@@H]1C)C2=O [herbimycin]
effect on chemotaxis to SDF-1α [1]: inhibited chemotaxis | effect on fugetaxis from SDF-1α [1]: minimal effect on fugetaxis

Nc1nc2c(nc(Br)n2[C@@H]2O[C@@H]3COP(=O)(O)O[C@H]3[C@H]2O)c(=O)[nH]1 [8-Br-cGMP]
inhibition of fugetaxis induced by Fraction 18 (Jurkat T-cells): did not significantly inhibit fugetaxis

SDF-1α
concentration of maximal fugetaxis ([2]; CD4+CD45RA+ cells): 10 µg/mL | T-cells transmigrating in response to a positive gradient of SDF-1α ([2]; CD4+CD45RA+ cells): 85% | T-cells transmigrating in response to a positive gradient of SDF-1α ([2]; CD4+CD45RO+ cells): 79% | T-cells transmigrating in response to a positive gradient of SDF-1α ([2]; CD8+CD45RA+ cells): 97% | T-cells transmigrating in response to a positive gradient of SDF-1α ([2]; CD8+CD45RO+ cells): 51% | concentration of maximal fugetaxis ([2]; CD8+CD45RO+, CD8+CD45RA+ and CD4+CD45RO+ cells): 1 µg/mL | concentration of peak chemoattractant activities ([2]; all four adult T-cell subpopulations): 100 ng/mL | decline of chemotaxis toward SDF-1α ([2]; concentration increased from 100 ng/ml to 10 μg/ml, all cells): ≤ 27 fold | concentration at which agent acts as potent fugetactic agent to immune cells ([2]; mature T cells): higher than 200 ng/ml | direction of T-cell migration relative to insert ([3]; insert contained 10 μg/ml SDF-1α): migrate towards the source of SDF-1α and a second population to migrate away | direction of T-cell migration relative to insert ([3]; insert contained SDF-1α at 100 ng/ml): Only movement toward the insert was seen | direction of T-cell movement in methylcellulose [4]: away from high concentrations of SDF-1α and towards low concentrations | cell movement in response to SDF-1α ([5]; TN, DP, SP fetal thymocytes and fetal blood T-cells): minimal cell movement in response to SDF-1α except in the most immature TN subset | fugetaxis above background chemokinesis ([5]; thymocyte subpopulations, even at 1 μg/ml and 10 μg/ml): In no thymocyte subpopulation was fugetaxis noted above background chemokinesis levels | concentration of maximal chemotactic responses [6]: 100 ng/mL | T cell accumulation at site of Ova challenge (C57/B6 mice; SDF-1 low dose (100 ng/ml) IP, vs sham or PBS): No significant differences | T cell infiltration at site of Ova challenge (C57/B6 mice; high dose SDF-1 (5 μg/ml) IP, p=0.02 vs controls): blunted significantly below that of controls | concentration at which reported as lymphocyte chemoattractant [7]: lower than 100 ng/ml

B1: MIP-1α: human chemokine (protein, UniProt P10147 24-92, looked up)
C-C motif chemokine 3: SLAADTPTACCFSYTSRQIPQNFIADYFETSSQCSKPGVIFLTKRSRQVCADPSEEWVQKYVSDLELSA
chemotactic response of T-cell subsets ([8]; 10 ng/ml): clear chemotactic response

B2: vMIP-II: KSHV-encoded human chemokine homologue (protein, UniProt Q98157 21-94, looked up)
Viral macrophage inflammatory …: GDTLGASWHRPDKCCLGYQKRPLPQVLLSSWYPTSQLCSKPGVIFLTKRGRQVCADKSKDWVKKLMQQLPVTAR
fugetactic response of T-cells ([8]; 100 ng/ml): not
